Literature values as cited in PubChem BioAssay AID1259409 (Chemical Carcinogenesis Research Information System (CCRIS), 2018).

Test system: rodent chemically induced tumor inhibition, incidence and multiplicity
Assay: CCRIS tumor inhibitor studies

Compound: CC(C)(Sc1cc(C(C)(C)C)c(O)c(C(C)(C)C)c1)Sc1cc(C(C)(C)C)c(O)c(C(C)(C)C)c1
- tumour outcome (control, treated, inhibition, significance) (Carcinogen: BENZO[A]PYRENE, 50-32-8, Dose [Inhibitor]: 0, 0.06% IN DIET FOR DURATION OF STUDY BEGINNING 2 WK PRIOR TO CARCINOGEN DOSE (STUDY DURATION: 25 WK), Route [Inhibitor]: ORAL, Species: MOUSE, Strain/Sex: STRAIN-A/FEMALE, Target Tissue: Type of Lesion: FORESTOMACH: TUMOR, Dose [Carcinogen]: 1 MG IN 0.2 ML OLIVE OIL 2/WK FOR 4 WK, Promoter: NONE USED): 15/15 (100%), 13/13 (100%), 0%, not significant
- tumour outcome (control, treated, inhibition, significance) (Carcinogen: BENZO[A]PYRENE, 50-32-8, Dose [Inhibitor]: 0, 0.06% IN DIET FOR DURATION OF STUDY BEGINNING 2 WK PRIOR TO CARCINOGEN DOSE (STUDY DURATION: 25 WK), Route [Inhibitor]: ORAL, Species: MOUSE, Strain/Sex: STRAIN-A/FEMALE, Target Tissue: Type of Lesion: LUNG: ADENOMA, Dose [Carcinogen]: 1 MG IN 0.2 ML OLIVE OIL 2/WK FOR 4 WK, Promoter: NONE USED): 15/15 (100%), 13/13 (100%), 0%, not significant
- tumour outcome (control, treated, inhibition, significance) (Carcinogen: BENZO[A]PYRENE, 50-32-8, Dose [Inhibitor]: 0, 1% IN DIET FOR DURATION OF STUDY BEGINNING 2 WK PRIOR TO CARCINOGEN DOSE (STUDY DURATION: 25 WK), Route [Inhibitor]: ORAL, Species: MOUSE, Strain/Sex: STRAIN-A/FEMALE, Target Tissue: Type of Lesion: FORESTOMACH: TUMOR, Dose [Carcinogen]: 1 MG IN 0.2 ML OLIVE OIL 2/WK FOR 4 WK, Promoter: NONE USED): 15/15 (100%), 15/15 (100%), 0%, not significant
- tumour outcome (control, treated, inhibition, significance) (Carcinogen: BENZO[A]PYRENE, 50-32-8, Dose [Inhibitor]: 0, 1% IN DIET FOR DURATION OF STUDY BEGINNING 2 WK PRIOR TO CARCINOGEN DOSE (STUDY DURATION: 25 WK), Route [Inhibitor]: ORAL, Species: MOUSE, Strain/Sex: STRAIN-A/FEMALE, Target Tissue: Type of Lesion: LUNG: ADENOMA, Dose [Carcinogen]: 1 MG IN 0.2 ML OLIVE OIL 2/WK FOR 4 WK, Promoter: NONE USED): 15/15 (100%), 15/15 (100%), 0%, not significant
- outcome (Carcinogen: N,N-diethylnitrosamine, 55-18-5, Dose [Inhibitor]: 1% in diet through study, dose and study duration 24 wk, Route [Inhibitor]: Oral, Species: Mouse, Strain/Sex: ddy/Male, Target Tissue: Type of Lesion: Kidney, Dose [Carcinogen]: 100 mg/kg bw, Promoter: Ferric nitrilotriacetate, 16448-54-7): 14/20 (70%), 4/20 (20%)

Compound: OCCOc1ccc(/C(=C(/CCCl)c2ccccc2)c2ccccc2)cc1
- tumour outcome (control, treated, inhibition, significance) (Carcinogen: 7,12-DIMETHYLBENZ[A]ANTHRACENE (DMBA) (57-97-6), Dose [Inhibitor]: 50 MG/KG/D FOR 37 WK (STUDY DURATION: 37 WK), Route [Inhibitor]: ORAL GAVAGE, Species: MOUSE, Strain/Sex: SENCAR/FEMALE, Target Tissue: Type of Lesion: MAMMARY: CARCINOMA, Dose [Carcinogen]: 20 UG/D FOR 6 WKS (STUDY DURATION: 37 WKS), Promoter: MEDROXYPROGESTERONE ACETATE (71-58-9)): 10/21 (48%); 1/18 (6%), 88%, p=0.003
- tumour outcome (control, treated, inhibition, significance) (Carcinogen: 7,12-DIMETHYLBENZ[A]ANTHRACENE (DMBA) [57-97-6], Dose [Inhibitor]: 50 MG/KG/D FOR 52 WK (STUDY DURATION: 52 WK), Route [Inhibitor]: ORAL GAVAGE, Species: MOUSE, Strain/Sex: SENCAR/FEMALE, Target Tissue: Type of Lesion: MAMMARY: CARCINOMA, Dose [Carcinogen]: 20 UG/D FOR 6 WKS, Promoter: MEDROXYPROGESTERONE ACETATE (71-58-9)): 13/23 (57%); 1/20 (5%), 91%, p=0.0003

Compound: CC(C)=C1C=CC(O)CC1 (stereo unspecified)
- tumour outcome (control, treated, inhibition, significance) (Carcinogen: 7,12-DIMETHYLBENZ[A]ANTHRACENE, 57-97-6, Dose [Inhibitor]: 0, 12 NMOL PER REPEATED APPLICATION FOR 20 WK (STUDY DURATION: 20 WK), Route [Inhibitor]: DERMAL, Species: MOUSE, Strain/Sex: CD-1/FEMALE, Target Tissue: Type of Lesion: SKIN: TUMOR, Dose [Carcinogen]: 100 UG ONCE, Promoter: OKADAIC ACID, 78111-17-8): 87%, 67%, 23%, not calculated

Compound: O=C(c1ccc(O)cc1O)C(c1coc2cc(O)ccc2c1=O)C(c1ccc(O)cc1)c1ccc(O)cc1 (stereo unspecified)
- tumour outcome (control, treated, inhibition, significance) (Carcinogen: 7,12-DIMETHYLBENZ[A]ANTHRACENE, 57-97-6, Dose [Inhibitor]: 0, 16 NMOL 2/WK 1 HR PRIOR TO EACH PROMOTER DOSE FOR 20 WK (STUDY DURATION: 20 WK), Route [Inhibitor]: DERMAL, Species: MOUSE, Strain/Sex: ICR/FEMALE, Target Tissue: Type of Lesion: SKIN: TUMOR, Dose [Carcinogen]: 0.19 UMOL ONCE, Promoter: 12-0-TETRADECANOYLPHORBOL-13-ACETATE, 16561-29-8): 70%, 60%, 14%, not calculated

Compound: CC(=O)OCC(=O)[C@@]1(O)CC[C@H]2[C@@H]3CCC4=CC(=O)CC[C@]4(C)[C@H]3C(=O)C[C@@]21C
- tumour outcome (control, treated, inhibition, significance) (Carcinogen: 1,2-DIMETHYLHYDRAZINE DIHYDROCHLORIDE, 306-37-6, Dose [Inhibitor]: 0, 2.5 MG/KG IN PEANUT OIL ON DAYS 1 AND 3 OF STUDY THEN 1/WK FOR 30 WK (STUDY DURATION: 31 WK), Route [Inhibitor]: SUBCUTANEOUS, Species: RAT, Strain/Sex: SPRAGUE-DAWLEY/MALE, Target Tissue: Type of Lesion: COLON: ADENOCARCINOMA, Dose [Carcinogen]: 9 MG/KG 1/WK FOR 7 WK THEN 19.4 MG/KG 1/WK FOR 13 WK, Promoter: NONE USED): 14/14 (100%), 12/13 (92%), 8%, not significant
- tumour outcome (control, treated, inhibition, significance) (Carcinogen: 1,2-DIMETHYLHYDRAZINE DIHYDROCHLORIDE, 306-37-6, Dose [Inhibitor]: 0, 2.5 MG/KG IN PEANUT OIL ON DAYS 1 AND 3 OF STUDY THEN 1/WK FOR 30 WK (STUDY DURATION: 31 WK), Route [Inhibitor]: SUBCUTANEOUS, Species: RAT, Strain/Sex: SPRAGUE-DAWLEY/MALE, Target Tissue: Type of Lesion: SMALL INTESTINE: ADENOCARCINOMA, Dose [Carcinogen]: 9 MG/KG 1/WK FOR 7 WK THEN 19.4 MG/KG 1/WK FOR 13 WK, Promoter: NONE USED): 13/14 (93%), 10/13 (77%), 17%, not significant

Compound: S=C=Nc1c2ccccc2c2ccc3cccc4ccc1c2c43
- outcome (Carcinogen: BENZO[A]PYRENE, 50-32-8, Dose [Inhibitor]: 0, 5 UMOL IN ACETONE 4 HR PRIOR TO CARCINOGEN DOSE (STUDY DURATION: 20 WK), Route [Inhibitor]: DERMAL, Species: MOUSE, Strain/Sex: STRAIN-A/FEMALE, Target Tissue: Type of Lesion: SKIN: TUMOR, Dose [Carcinogen]: 0.1 UMOL IN ACETONE ONCE, Promoter: 12-O-TETRADECANOYLPHORBOL-13-ACETATE, 16561-29-8): 85%, 60%, 18%, not significant at 15 wk; 95%, 90%, 5%, not significant at 20 wk

Compound: O=c1c(O)c(-c2cc(O)c(O)c(O)c2)oc2cc(O)cc(O)c12
- tumour outcome (control, treated, inhibition, significance) (Carcinogen: 7,12-DIMETHYLBENZ[A]ANTHRACENE, 57-97-6, Dose [Inhibitor]: 100 UG IN 0.2 ML ACETONE ONCE 5 MIN BEFORE CARCINOGEN TREATMENT (STUDY DURATION: 31 WK), Route [Inhibitor]: DERMAL, Species: MOUSE, Strain/Sex: CD-1/FEMALE, Target Tissue: Type of Lesion: SKIN: PAPILLOMA, Dose [Carcinogen]: 10 NMOL IN 0.2 ML ACETONE ONCE, Promoter: 12-O-TETRADECANOYLPHORBOL-13-ACETATE, 16561-29-8): 87%, 85%, 2%, not calculated
- tumour outcome (control, treated, inhibition, significance) (Carcinogen: (+/-)-7BETA,8ALPHA-DIHYDROXY-9ALPHA,10ALPHA-EPOXY-7,8,9,10-TETRAHYDROBENZO[A]PYR ENE, 58917-67-2, Dose [Inhibitor]: 0, 1400 NMOL (TOTAL DOSE) 10 MIN PRIOR TO CARCINOGEN DOSE INJECTED AS 1/7, 2/7, AND 4/7 OF THE TOTAL ON DAYS 1, 8, AND 1, Route [Inhibitor]: INTRAPERITONEAL, Species: MOUSE, Strain/Sex: ICR/MALE,FEMALE, Target Tissue: Type of Lesion: LUNG: TUMOR, Dose [Carcinogen]: 30 NMOL (TOTAL DOSE) INJECTED IN DOSES OF 1/7, 2/7, AND 4/7 ON DAYS 1,8, AND 15 OF LIFE, RESPECTIVELY, Promoter: NONE USED): 93%, 65%, 30%, p<0.05
- tumour outcome (control, treated, inhibition, significance) (Carcinogen: (+/-)-7BETA,8ALPHA-DIHYDROXY-9ALPHA,10ALPHA-EPOXY-7,8,9,10-TETRAHYDROBENZO[A]PYR ENE, 58917-67-2, Dose [Inhibitor]: 0, 1400 NMOL (TOTAL DOSE) APPLIED 10 MIN PRIOR TO CARCINOGEN DOSE INJECTED AS 1/7, 2/7, AND 4/7 OF THE TOTAL ON DAYS 1,, Route [Inhibitor]: INTRAPERITONEAL, Species: MOUSE, Strain/Sex: ICR/MALE,FEMALE, Target Tissue: Type of Lesion: LUNG: TUMOR, Dose [Carcinogen]: 15 NMOL (TOTAL DOSE) INJECTED IN DOSES OF 1/7, 2/7, AND 4/7 ON DAYS 1, 8, AND 15 OF LIFE, RESPECTIVELY, Promoter: NONE USED): 63%, 36%, 43%, p<0.05
- tumour outcome (control, treated, inhibition, significance) (Carcinogen: BENZO[A]PYRENE, 50-32-8, Dose [Inhibitor]: 0, 1400 NMOL (TOTAL DOSE) APPLIED 10 MIN PRIOR TO CARCINOGEN DOSE INJECTED AS 1/7, 2/7, AND 4/7 OF THE TOTAL ON DAYS 1,, Route [Inhibitor]: INTRAPERITONEAL, Species: MOUSE, Strain/Sex: ICR/MALE,FEMALE, Target Tissue: Type of Lesion: LUNG: TUMOR, Dose [Carcinogen]: 450 NMOL (TOTAL DOSE) INJECTED IN DOSES OF 1/7, 2/7, AND 4/7 ON DAYS 1, 8, AND 15 OF LIFE, RESPECTIVELY, Promoter: NONE USED): 73%, 79%, -8%, not significant
